Data as given in US20100317583A1, “TREATMENT OF MELANOMA WITH ALPHA THYMOSIN PEPTIDES IN COMBINATION WITH AN ANTINEOPLASTIC HEAT SHOCK APOPTOSIS ACTIVATOR (HSAA)” (SciClone Pharmaceuticals, Inc., priority 2007, published 2010).
“And” between values parts separate entries of the source, which are not always exact repeats. Equal values may be shown once. No end group written: not given here.

Test system: murine B16 melanoma cells
Test: Anti-tumor efficacy (tumor size, tumor volume, tumor weight) in C57BL/6 mice bearing subcutaneous B16 melanoma
Format: in vivo
Conditions: for Tumor weights / PI (TW), percent inhibition of tumor weight vs vehicle: Day 17
Protocol: In this study, the anti-tumor effect of the combined treatment of thymosin alpha-1 (TA-1), Paclitaxel (Pac) and Elesclomol (Ele) was evaluated in C57BL/6 mice bearing B16 melanoma cells. The toxic effects of the dosing regimens were also monitored. A total of 60 mice were implanted subcutaneously with murine B16 cells, followed by treatment with TA-1 or Pac/Ele alone or in combination for 14 consecutive days. TA-1 was given daily via s.c., while Pac and Ele were co-i.v. administered on Day 1, 7 and 13. In total, 6 groups were used: Group 1: vehicle; Group 2: TA-1 6 mg/kg; Group 3: Pac 10 mg/kg+Ele 10 mg/kg; Group 4: Pac 30 mg/kg+Ele 30 mg/kg; Group 5: TA-1 6 mg/kg+Pac 10 mg/kg+Ele 10 mg/kg; and Group 6: TA-1 6 mg/kg+Pac 30 mg/kg+Ele 30 mg/kg. Tumor volume and body weight were measured every three days, and tumor weights were measured on Day 17 at the end of the study.
Murine B16 melanoma cells were thawed from the stock of Cell Culture Center, Institute of Basic Medical Sciences, Peking Union Medical College and Chinese Academy of Medical Sciences (PUMC & CAMS, Beijing, P. R. China). The tumor cells were adapted in C57BL/6 mice before use in the experiment (Refer to Section 4.3.1 for details on cell adaptation).
Using aseptic tissue culture procedures, one vial of B16 melanoma cells was removed from the liquid nitrogen stock, and placed into a 37° C. water bath. Gentle swirling was conducted until the content of the vial was thawed. Once thawed, the cells were immediately centrifuged with a TD5A-WS centrifuge at 1000 rpm, 20-25° C., 5 min. After centrifugation, the cells were suspended in […] normal saline (NS) and subcutaneously injected into 10 mice (0.1 mL/mouse, about 1×10^6 cells). After 7-10 days, when the tumor diameter was approximately 1 cm, the animals were euthanized with CO2 overdose and the tumors excised. The procedure was repeated with 20 mice to generate a sufficient number of B16 melanoma cells with adequate transplantability.
On the day of tumor implantation, approximately 1×10^6 cells in 0.1 mL were subcutaneously injected on the right axillary area of each mouse. The day of tumor implantation was defined as Day 0.
On Day 1, the animals were randomly assigned into different weight-matched groups, and dosing was started using the regimen according to Table 2. Briefly, TA-1 was administered once daily via subcutaneous (s.c.) injection for 14 consecutive days at a site different from that of tumor cell implantation, while Pac and Ele was administered on Days 1, 7, and 13 via an intravenous (i.v.) injection.
From Day 1 to Day 15, mortality and moribundity were checked twice daily, the body weights were recorded once every 3 days, and tumors were measured using a caliper once every 3 days. At the end of the study (Day 17), the animals were euthanized by CO2 asphyxiation, and the tumors were excised and weighed.
Based on the tumor size, the tumor volume (TV) was calculated with the formula: [TV=(Length×Width×Width)/2]. And the percent inhibition (PI) of TV (PITV) was calculated according to the equation below:
PITV(%)=(TV vehicle−TVdrug treated)/TV vehicle×100
The anti-tumor effect of the test article was further evaluated with tumor weight (TW) measured on day of necropsy (Day 17). The PI of TW was calculated using the equation below:
PITW(%)=100×(TW vehicle−TW drug treated)/TW vehicle
The calculations of PITV and PITW were performed using an Excel spreadsheet and reviewed by the Study Director and Study Monitor.
Inter-group comparison was performed in terms of tumor volume, tumor weight and body weight, using a student's t test. P values of less than 0.05 were considered to be statistically significant.

[1] = Day 3, individual animals F1-F5, M1-M5, low-dose arms: TA-1 6 mg/kg, Pac 10 + Ele 10 mg/kg
[2] = Day 3, low-dose arms: TA-1 6 mg/kg s.c. daily, Pac 10 + Ele 10 mg/kg co-i.v. Days 1, 7, 13
[3] = Day 6, individual animals F1-F5, M1-M5, low-dose arms: TA-1 6 mg/kg, Pac 10 + Ele 10 mg/kg
[4] = Day 6, low-dose arms: TA-1 6 mg/kg s.c. daily, Pac 10 + Ele 10 mg/kg co-i.v. Days 1, 7, 13
[5] = Day 9, individual animals F1-F5, M1-M5, low-dose arms: TA-1 6 mg/kg, Pac 10 + Ele 10 mg/kg
[6] = Day 9, low-dose arms: TA-1 6 mg/kg s.c. daily, Pac 10 + Ele 10 mg/kg co-i.v. Days 1, 7, 13
[7] = Day 12, low-dose arms: TA-1 6 mg/kg s.c. daily, Pac 10 + Ele 10 mg/kg co-i.v. Days 1, 7, 13
[8] = Day 15, low-dose arms: TA-1 6 mg/kg s.c. daily, Pac 10 + Ele 10 mg/kg co-i.v. Days 1, 7, 13

thymosin alpha 1 (SDAAVDTSSEITTKDLKEKKEVVEEAEN; ends and bridges not checked; UniProt P06454 2-29, looked up) [TA-1, 28 amino acid peptide with a molecular weight of 3108; immunomodulator]
Tumor measurements, L (length) [1]: 0.1 cm (2×) and 0.2 cm (2×)
Tumor measurements, W (width) [1]: 0.1 cm (2×) and 0.2 cm (2×)
Tumor volumes (Day 3, individual animals F1-F5, M1-M5, low-dose arms: TA-1 6 mg/kg, Pac 10 + Ele 10 mg/kg, female mice): 0 cm^3 (4×) and 0.0005 cm^3
Tumor volumes (Day 3, individual animals F1-F5, M1-M5, low-dose arms: TA-1 6 mg/kg, Pac 10 + Ele 10 mg/kg, male mice): 0 cm^3 (2×) and 0.004 cm^3 (2×) and 0.0005 cm^3
PI (TV), percent inhibition of tumor volume vs vehicle [2]: −50.00%
Tumor Volume (Mean ± SD) [2]: 0.0009 ± 0.0016 cm^3
Tumor measurements, L (length) [3]: 0.3 cm and 0.2 cm (2×) and 0.1 cm
Tumor measurements, W (width) [3]: 0.3 cm and 0.2 cm (2×) and 0.1 cm
Tumor volumes (Day 6, individual animals F1-F5, M1-M5, low-dose arms: TA-1 6 mg/kg, Pac 10 + Ele 10 mg/kg, female mice): 0 cm^3 (4×) and 0.0135 cm^3
Tumor volumes (Day 6, individual animals F1-F5, M1-M5, low-dose arms: TA-1 6 mg/kg, Pac 10 + Ele 10 mg/kg, male mice): 0 cm^3 (2×) and 0.004 cm^3 (2×) and 0.0005 cm^3
PI (TV), percent inhibition of tumor volume vs vehicle [4]: 58.49%
Tumor Volume (Mean ± SD) [4]: 0.0022 ± 0.0043 cm^3
Tumor volumes (Day 9, animal F1): 0.0005 cm^3
Tumor volumes (Day 9, animal F2): 0 cm^3
Tumor volumes (Day 9, animal F3): 0 cm^3
Tumor volumes (Day 9, animal F4): 0 cm^3
Tumor volumes (Day 9, animal F5): 0.0135 cm^3
Tumor volumes (Day 9, animal M1): 0.004 cm^3
Tumor volumes (Day 9, animal M2): 0.004 cm^3
Tumor volumes (Day 9, animal M3): 0.004 cm^3
Tumor volumes (Day 9, animal M4): 0 cm^3
Tumor volumes (Day 9, animal M5): 0 cm^3
Tumor measurements, L (length) [5]: 0.3 cm and 0.2 cm (3×) and 0.1 cm
Tumor measurements, W (width) [5]: 0.3 cm and 0.2 cm (3×) and 0.1 cm
PI (TV), percent inhibition of tumor volume vs vehicle [6]: 88.26%
Tumor Volume (Mean ± SD) [6]: 0.0026 ± 0.0043 cm^3
Tumor measurements L (Day 12, animal F1): 0.1 cm
Tumor measurements W (Day 12, animal F1): 0.1 cm
Tumor volumes (Day 12, animal F1): 0.0005 cm^3
Tumor measurements L (Day 12, animal F2): 0.2 cm
Tumor measurements W (Day 12, animal F2): 0.2 cm
Tumor volumes (Day 12, animal F2): 0.004 cm^3
Tumor measurements L (Day 12, animal F3): 0.2 cm
Tumor measurements W (Day 12, animal F3): 0.2 cm
Tumor volumes (Day 12, animal F3): 0.004 cm^3
Tumor measurements L (Day 12, animal F4): 0.1 cm
Tumor measurements W (Day 12, animal F4): 0.1 cm
Tumor volumes (Day 12, animal F4): 0.0005 cm^3
Tumor measurements L (Day 12, animal F5): 0.3 cm
Tumor measurements W (Day 12, animal F5): 0.3 cm
Tumor volumes (Day 12, animal F5): 0.0135 cm^3
Tumor measurements L (Day 12, animal M1): 0.2 cm
Tumor measurements W (Day 12, animal M1): 0.2 cm
Tumor volumes (Day 12, animal M1): 0.004 cm^3
Tumor measurements L (Day 12, animal M2): 0.2 cm
Tumor measurements W (Day 12, animal M2): 0.2 cm
Tumor volumes (Day 12, animal M2): 0.004 cm^3
Tumor measurements L (Day 12, animal M3): 0.2 cm
Tumor measurements W (Day 12, animal M3): 0.2 cm
Tumor volumes (Day 12, animal M3): 0.004 cm^3
Tumor measurements L (Day 12, animal M4): 0.2 cm
Tumor measurements W (Day 12, animal M4): 0.2 cm
Tumor volumes (Day 12, animal M4): 0.004 cm^3
Tumor measurements L (Day 12, animal M5): 0.1 cm
Tumor measurements W (Day 12, animal M5): 0.1 cm
Tumor volumes (Day 12, animal M5): 0.0005 cm^3
PI (TV), percent inhibition of tumor volume vs vehicle [7]: 96.28%
Tumor Volume (Mean ± SD) [7]: 0.0039 ± 0.0038 cm^3
Tumor measurements L (Day 15, animal F1): 0.3 cm
Tumor measurements W (Day 15, animal F1): 0.3 cm
Tumor volumes (Day 15, animal F1): 0.0135 cm^3
Tumor measurements L (Day 15, animal F2): 0.3 cm
Tumor measurements W (Day 15, animal F2): 0.3 cm
Tumor volumes (Day 15, animal F2): 0.0135 cm^3
Tumor measurements L (Day 15, animal F3): 0.5 cm
Tumor measurements W (Day 15, animal F3): 0.5 cm
Tumor volumes (Day 15, animal F3): 0.0625 cm^3
Tumor measurements L (Day 15, animal F4): 0.3 cm
Tumor measurements W (Day 15, animal F4): 0.3 cm
Tumor volumes (Day 15, animal F4): 0.0135 cm^3
Tumor measurements L (Day 15, animal F5): 0.6 cm
Tumor measurements W (Day 15, animal F5): 0.6 cm
Tumor volumes (Day 15, animal F5): 0.108 cm^3
Tumor measurements L (Day 15, animal M1): 0.5 cm
Tumor measurements W (Day 15, animal M1): 0.5 cm
Tumor volumes (Day 15, animal M1): 0.0625 cm^3
Tumor measurements L (Day 15, animal M2): 0.4 cm
Tumor measurements W (Day 15, animal M2): 0.4 cm
Tumor volumes (Day 15, animal M2): 0.032 cm^3
Tumor measurements L (Day 15, animal M3): 0.6 cm
Tumor measurements W (Day 15, animal M3): 0.6 cm
Tumor volumes (Day 15, animal M3): 0.108 cm^3
Tumor measurements L (Day 15, animal M4): 0.5 cm
Tumor measurements W (Day 15, animal M4): 0.5 cm
Tumor volumes (Day 15, animal M4): 0.0625 cm^3
Tumor measurements L (Day 15, animal M5): 0.5 cm
Tumor measurements W (Day 15, animal M5): 0.5 cm
Tumor volumes (Day 15, animal M5): 0.0625 cm^3
PI (TV), percent inhibition of tumor volume vs vehicle [8]: 85.60%
Tumor Volume (Mean ± SD) [8]: 0.0539 ± 0.0358 cm^3
Tumor Weight (Mean ± SD) (Day 17 (necropsy), low-dose arms: TA-1 6 mg/kg s.c. daily, Pac 10 + Ele 10 mg/kg co-i.v. Days 1, 7, 13): 0.88 ± 0.34 g
Tumor weights (animal F1): 0.64 g
Tumor weights (animal F2): 0.5 g
Tumor weights (animal F3): 1.2 g
Tumor weights (animal F4): 0.62 g
Tumor weights (animal F5): 1.45 g
Tumor weights (animal M1): 0.69 g
Tumor weights (animal M2): 0.56 g
Tumor weights (animal M3): 1.36 g
Tumor weights (animal M4): 0.92 g
Tumor weights (animal M5): 0.89 g
PI (TW), percent inhibition of tumor weight vs vehicle (low-dose arms: TA-1 6 mg/kg s.c. daily, Pac 10 + Ele 10 mg/kg co-i.v. Days 1, 7, 13): 55.67%
PI (TW), percent inhibition of tumor weight vs vehicle (low-dose arms: TA-1 6 mg/kg s.c. daily, Pac 10 + Ele 10 mg/kg co-i.v. Days 1, 7, 13, listed as Group 2): 55.67%
mean tumor volume reduced in comparison to that of the vehicle control group (throughout the course of the study, TA-1 6 mg/kg s.c. daily): more than 50%
